Consider three molecules from patent publication US20120077677A1, “Use of 4-phenylbutyric acid and/or salts thereof for enhancing stress tolerance in plants” (BAYER CROPSCIENCE AG, priority 2010, published 2012).

One test deals with BRSNS (Brassica napus). Nature of the test: Drought stress test on potted crop plants, spray application, Brassica napus. It is filed as in vivo. Here is the method:
Seeds of monocotyledonous and dicotyledonous crop plants are placed in sandy loam in wood-fiber pots, covered with soil and cultivated in a greenhouse under good growth conditions. The test plants were treated at the early leaf stage (BBCH10-BBCH13). To ensure uniform water supply before commencement of stress, the potted plants were supplied with the maximum amount of water immediately beforehand by dam irrigation and, after application, transferred in plastic inserts in order to prevent subsequent, excessively rapid drying. The inventive compounds, formulated in the form of wettable powders (WP), wettable granules (WG), suspension concentrates (SC) or emulsion concentrates (EC), were sprayed onto the green parts of the plants as an aqueous suspension at an equivalent water application rate of 600 l/ha with addition of 0.2% wetting agent (agrotin). Substance application was followed immediately by stress treatment of the plants (cold or drought stress). For cold stress treatment, the plants were kept under the following controlled conditions: • “day”: 12 hours with illumination at 8° C. • “night”: 12 hours without illumination at 1° C. Drought stress was induced by gradual drying out under the following conditions: • “day”: 14 hours with illumination at 26° C. • “night”: 10 hours without illumination at 18° C. The duration of the respective stress phases was guided mainly by the state of the untreated, stressed control plants and thus varied from crop to crop. It was ended (by re-irrigating or transfer to a greenhouse with good growth conditions) as soon as irreversible damage was observed on the untreated, stressed control plants. In the case of dicotyledonous crops, for example oilseed rape and soybeans, the duration of the drought stress phase varied between 3 and 5 days, in the case of monocotyledonous crops, for example wheat, barley or corn, between 6 and 10 days. The duration of the cold stress phase varied between 12 and 14 days. […] The intensity of damage was first assessed as a percentage (100%=plants have died, 0%=like control plants). […]

The subject of another test is ZEAMX (Zea mays). Nature of the test: Drought stress test on potted crop plants, spray application, Zea mays. It counts as in vivo. To be noted: dosage 250 g/ha. Here is the method: (§1) Seeds of monocotyledonous and dicotyledonous crop plants are placed in sandy loam in wood-fiber pots, covered with soil and cultivated in a greenhouse under good growth conditions. The test plants were treated at the early leaf stage (BBCH10-BBCH13). To ensure uniform water supply before commencement of stress, the potted plants were supplied with the maximum amount of water immediately beforehand by dam irrigation and, after application, transferred in plastic inserts in order to prevent subsequent, excessively rapid drying. The inventive compounds, formulated in the form of wettable powders (WP), wettable granules (WG), suspension concentrates (SC) or emulsion concentrates (EC), were sprayed onto the green parts of the plants as an aqueous suspension at an equivalent water application rate of 600 l/ha with addition of 0.2% wetting agent (agrotin). Substance application was followed immediately by stress treatment of the plants (cold or drought stress). For cold stress treatment, the plants were kept under the following controlled conditions: • “day”: 12 hours with illumination at 8° C. • “night”: 12 hours without illumination at 1° C. […] The intensity of damage was first assessed as a percentage (100%=plants have died, 0%=like control plants). […]

The subject of another test is cotton. To be noted: cited from earlier work.
The test system of test [1] is TRZAS (Triticum aestivum). The experiment in a line: Drought stress test on potted crop plants, spray application, Triticum aestivum. It counts as in vivo. To be noted: dosage 25 g/ha. Here is the method:
as §1

The structures appear in SMILES notation.

Consider `O=C(O)CCCc1ccccc1` [4-phenylbutyric acid], for which the “EF (BRSNS), efficacy = percentage reduction in the intensity of damage” value in the test with BRSNS (Brassica napus) (dosage 25 g/ha) was more than 5%. Also, the “EF (ZEAMX), efficacy = percentage reduction in the intensity of damage” value in the test with ZEAMX (Zea mays) is more than 5%.

Take `O=C([O-])CCCc1ccccc1.[Na+]` [Compound I-2, Sodium 4-phenylbutyrate]: the “EF (BRSNS), efficacy = percentage reduction in the intensity of damage” value in the test with BRSNS (Brassica napus) (dosage 250 g/ha) was more than 5%. The plant growth result in the test with cotton (application to cottonseeds, hence oil content of the harvested material) is reported as “increases”. Moreover, the “translocation of mono- and disaccharides” value with cotton (cotton, seed dressing) is given as “positively influenced”. Moreover, the “protein content of the leaves” value with cotton (cottonseed dressing, early growth stages, also enhances the yields) was “increases”. Moreover, the “flower formation and the maturing of cotton plants” value with cotton (cottonseed dressing, hence enhances the yields) is reported as “enhances”.

Consider `O=C(O)CCCc1ccccc1.OCCN(CCO)CCO` [Compound I-22, Tris-N,N,N-(2-hydroxy-1-yl)ammonium 4-phenylbutyrate], for which the “EF (BRSNS), efficacy = percentage reduction in the intensity of damage” value in the test on BRSNS (Brassica napus) (dosage 25 g/ha) is more than 5%. Moreover, the “EF (TRZAS), efficacy = percentage reduction in the intensity of damage” value in test [1] is listed as more than 5%.
